Results published in the NIST ThermoML archive (doi:10.1021/acs.jced.5b00717).

Assay: an = ratio of the nth substance listed
Details: 101 kPa, Liquid; for mass density: Vibrating tube method; for viscosity: rotating cylinders

C[N+](C)(C)CCO.[Cl-] [choline chloride] + OCC(O)CO
Details | mass density, a2 = 2 [kg/m3] | mass density, a2 = 4 [kg/m3] | viscosity, a2 = 2 [mPa·s] | viscosity, a2 = 4 [mPa·s]
293.15 K | 1194 | 1217 | 514.6 | 578.2
298.15 K | 1191 | 1214 | 365.7 | 400.3
303.15 K | 1188 | 1211 | 265.7 | 283.4
308.15 K | 1185 | 1208 | 197 | 205.1
313.15 K | 1183 | 1205 | 148.9 | 151.7
318.15 K | 1180 | 1202 | 114.7 | 113
323.15 K | 1177 | 1200 | 89.81 | 87.96

C[N+](C)(C)C.[Cl-] [tetramethylammonium chloride] + OCC(O)CO
Details | mass density, a2 = 2 [kg/m3] | mass density, a2 = 4 [kg/m3] | viscosity, a2 = 2 [mPa·s] | viscosity, a2 = 4 [mPa·s]
293.15 K | 1158 | 1180 | 581.8 | 557.5
298.15 K | 1155 | 1177 | 406.9 | 384.7
303.15 K | 1152 | 1174 | 290.5 | 272
308.15 K | 1149 | 1171 | 212.4 | 197
313.15 K | 1147 | 1168 | 158.5 | 145.8
318.15 K | 1144 | 1166 | 120.7 | 110.2
323.15 K | 1141 | 1163 | 93.57 | 84.8
